According to US10314815B2, “Polymorph of granaticin B” (Sloan-Kettering Institute for Cancer Research, priority 2014, dated 2019):

Columns and labels:
Type in all cases: physicochemical
[1] = Stability of crystalline Form A compared with amorphous Compound 1; conditions: crystalline Form A vs amorphous; traditional purification process
Hygroscopicity of Form A = test: Hygroscopicity of Form A
[2] = UV-Vis pH-dependent colour change (bathochromic shift) of MSK-777; conditions: colour change red to blue, basic conditions; read-out: approximate averaged pKa values of the acidic phenol protons (inflection point of colour change)
Excerpt: These absorptions indicate a benzoisochromanequinones (BIQ) chromophore. The broad adsorption in the visible region (around 527 nm) is responsible for the intense red color of the substance.
Under basic conditions (pH>8) a bathochromic shift of Vis-absorption (ca. 40 nm) is observed, indicating ionization of slightly acidic phenolic protons. This pH dependent indicatory behavior is characteristic to the BIQ chromophore and is visually observed as the solution turns from red to blue.

[3] = Chemical degradation under acidic conditions observed by HPLC; conditions: acidic conditions (pH<4), ambient temperature
Excerpt: The degradation is caused by hydrolysis of the glycosidic bond, forming Granaticin A, the biosynthetic precursor of MSK-777. Consistently, in a time dependent HPLC experiment a simultaneous increase of Granaticin A chromatographic areas and decrease of Granaticin B areas is observed. The hydrolysis experiment and the almost identical UV spectra indicate that MSK-777 (Granaticin B) and Granatioin A share the same core structure and chromophore. Therefore the structural difference between Granaticin A and MSK-777 arises from a hydrolysable part (sugar moiety) of the latter compound.

Q: Which results are given for `CC1OC2CC(=O)OC2C2=C1C(=O)c1c(O)c3c(c(O)c1C2=O)C1CC(OC2CCC(O)C(C)O2)C3(O)C(C)O1` (centres unmarked) [Form A of Compound 1, granaticin B]?
A: stability of solid form [1]: more stable than amorphous Compound 1; hygroscopicity (Hygroscopicity of Form A): substantially non-hygroscopic

Q: Which pKa [2] does the source give for `CC1OC2CC(=O)OC2C2=C1C(=O)c1c(O)c3c(c(O)c1C2=O)C1CC(OC2CCC(O)C(C)O2)C3(O)C(C)O1` (centres unmarked) [MSK-777, granaticin B] here?
A: ~8.5

Q: And the “degradation (hydrolysis of the glycosidic bond forming Granaticin A)” value [3]?
A: slow degradation

Q: With `CC1OC2CC(=O)OC2C2=C1C(=O)c1c(O)c3c(c(O)c1C2=O)C1CC(OC2CCC(O)C(C)O2)C3(O)C(C)O1` (centres unmarked) [Amorphous Compound 1, granaticin B] as the compound, how does the “stability of solid form” value [1] read?
A: less stable and prone to degradation
